Test system: MV-4-11 cells
Test: Gene expression microarray analysis (Affymetrix PrimeView) and GSEA
Type: cell-based, human
Parameters: RFU PODN (11730768_x_at) / Fold change /veh PODN (11730768_x_at) / RFU LINC00158 (11744669_a_at) / Fold change /veh LINC00158 (11744669_a_at) / RFU DUSP10 (11751237_a_at) / Fold change /veh DUSP10 (11751237_a_at) / RFU ID3 (11757404_x_at) / Fold change /veh ID3 (11757404_x_at) / RFU PLEKHG5 (11737974_s_at) / Fold change /veh PLEKHG5 (11737974_s_at) / RFU LRRC4B (11730491_at) / Fold change /veh LRRC4B (11730491_at) / RFU GIMAP4 (11747438_a_at) / Fold change /veh GIMAP4 (11747438_a_at) / RFU KRT8 (11758183_x_at) / Fold change /veh KRT8 (11758183_x_at) / RFU CNN1 (11734310_a_at) / Fold change /veh CNN1 (11734310_a_at) / RFU VPS37D (11726825_at) / Fold change /veh VPS37D (11726825_at) / RFU C10orf10 (11716522_x_at) / Fold change /veh C10orf10 (11716522_x_at) / RFU KIR2DL2 /// KIR2DL4 /// KIR2DL5A /// KIR2DL5B /// KIR2DS1 /// KIR2DS2 /// KIR2DS3 /// KIR2DS4 /// KIR3DL3 /// KIR3DL3 /// KIR3DS1 (11738374_at) / Fold change /veh KIR2DL2 /// KIR2DL4 /// KIR2DL5A /// KIR2DL5B /// KIR2DS1 /// KIR2DS2 /// KIR2DS3 /// KIR2DS4 /// KIR3DL3 /// KIR3DL3 /// KIR3DS1 (11738374_at) / RFU C1QL1 (11718748_at) / Fold change /veh C1QL1 (11718748_at) / RFU TMPRSS4 (11747572_a_at) / Fold change /veh TMPRSS4 (11747572_a_at) / RFU HAMP (11756126_x_at) / Fold change /veh HAMP (11756126_x_at) / RFU RNFT2 (11725882_a_at) / Fold change /veh RNFT2 (11725882_a_at) / RFU NR4A2 (11747474_a_at) / Fold change /veh NR4A2 (11747474_a_at) / RFU ABCC12 (11746883_a_at) / Fold change /veh ABCC12 (11746883_a_at) / RFU TMEM136 (11760407_x_at) / Fold change /veh TMEM136 (11760407_x_at) / RFU CLDN22 /// WWC2 (11732394_at) / Fold change /veh CLDN22 /// WWC2 (11732394_at) / RFU HLA-DPB1 (11760878_x_at) / Fold change /veh HLA-DPB1 (11760878_x_at) / RFU SPINT1 (11716480_a_at) / Fold change /veh SPINT1 (11716480_a_at) / RFU GAP43 (11754022_s_at) / Fold change /veh GAP43 (11754022_s_at) / RFU A4GNT (11735810_at) / Fold change /veh A4GNT (11735810_at) / RFU PRB3 (11715151_x_at) / Fold change /veh PRB3 (11715151_x_at) / RFU TUBB4B (11761932_at) / Fold change /veh TUBB4B (11761932_at) / RFU CAPN14 (11732068_a_at) / Fold change /veh CAPN14 (11732068_a_at) / RFU TMCC2 (11721928_a_at) / Fold change /veh TMCC2 (11721928_a_at) / RFU IRGQ (11745062_a_at) / Fold change /veh IRGQ (11745062_a_at) / RFU FAM174B (11720279_a_at) / Fold change /veh FAM174B (11720279_a_at) / RFU TMPRSS4 (11748680_a_at) / Fold change /veh TMPRSS4 (11748680_a_at) / RFU FAM212B (11763350_a_at) / Fold change /veh FAM212B (11763350_a_at) / RFU PLEKHG5 (11743358_a_at) / Fold change /veh PLEKHG5 (11743358_a_at) / RFU ZSCAN30 (11745921_a_at) / Fold change /veh ZSCAN30 (11745921_a_at) / RFU CMKLR1 (11741424_a_at) / Fold change /veh CMKLR1 (11741424_a_at) / RFU LOC101060620 /// MAPK8IP1 (11723275_at) / Fold change /veh LOC101060620 /// MAPK8IP1 (11723275_at) / RFU SPTSSB (11747773_x_at) / Fold change /veh SPTSSB (11747773_x_at) / RFU PRSS12 (11739890_at) / Fold change /veh PRSS12 (11739890_at) / RFU BIN1 (11741810_x_at) / Fold change /veh BIN1 (11741810_x_at) / RFU WNT11 (11732464_a_at) / Fold change /veh WNT11 (11732464_a_at) / RFU C10orf10 (11716521_a_at) / Fold change /veh C10orf10 (11716521_a_at) / RFU C5orf56 (11738089_at) / Fold change /veh C5orf56 (11738089_at) / RFU CYB561 (11721691_x_at) / Fold change /veh CYB561 (11721691_x_at) / RFU ANKRD19P (11752326_a_at) / Fold change /veh ANKRD19P (11752326_a_at) / RFU OR2T12 /// OR2T33 /// OR2T8 (11738714_s_at) / Fold change /veh OR2T12 /// OR2T33 /// OR2T8 (11738714_s_at) / RFU VCAN (11748164_a_at) / Fold change /veh VCAN (11748164_a_at) / RFU JSRP1 (11732532_at) / Fold change /veh JSRP1 (11732532_at) / RFU KRTAP10-11 (11738290_x_at) / Fold change /veh KRTAP10-11 (11738290_x_at) / RFU MYO3A (11730013_a_at) / Fold change /veh MYO3A (11730013_a_at) / RFU EBF3 (11725865_a_at) / Fold change /veh EBF3 (11725865_a_at) / RFU CAMK2N1 (11719241_x_at) / Fold change /veh CAMK2N1 (11719241_x_at) / RFU C5orf56 (11738088_a_at) / Fold change /veh C5orf56 (11738088_a_at) / RFU OLFML3 (11715873_a_at) / Fold change /veh OLFML3 (11715873_a_at) / RFU LOC100653217 /// NTM (11731650_a_at) / Fold change /veh LOC100653217 /// NTM (11731650_a_at) / RFU MAPK11 (11762145_a_at) / Fold change /veh MAPK11 (11762145_a_at) / RFU FIZ1 (11724087_x_at) / Fold change /veh FIZ1 (11724087_x_at) / RFU OASL (11726364_x_at) / Fold change /veh OASL (11726364_x_at) / RFU SOX15 (11748057_x_at) / Fold change /veh SOX15 (11748057_x_at) / RFU CD79A (11719716_a_at) / Fold change /veh CD79A (11719716_a_at) / RFU HIST1H1D (11736915_at) / Fold change /veh HIST1H1D (11736915_at) / RFU CASKIN2 (11723855_a_at) / Fold change /veh CASKIN2 (11723855_a_at) / RFU LOC730098 (11760151_x_at) / Fold change /veh LOC730098 (11760151_x_at) / RFU OR4N2 (11742367_at) / Fold change /veh OR4N2 (11742367_at) / RFU PRRT2 (11749266_a_at) / Fold change /veh PRRT2 (11749266_a_at) / RFU SNX32 (11753110_a_at) / Fold change /veh SNX32 (11753110_a_at) / RFU CDHR5 (11726645_a_at) / Fold change /veh CDHR5 (11726645_a_at) / RFU RCAN1 (11760418_a_at) / Fold change /veh RCAN1 (11760418_a_at) / RFU FAM167A (11723789_a_at) / Fold change /veh FAM167A (11723789_a_at) / RFU FAM26E (11764081_at) / Fold change /veh FAM26E (11764081_at) / RFU ISYNA1 (11749810_s_at) / Fold change /veh ISYNA1 (11749810_s_at) / RFU ACY1 (11761880_at) / Fold change /veh ACY1 (11761880_at) / RFU 11764098_at / Fold change /veh 11764098_at / RFU SAMD14 (11745864_x_at) / Fold change /veh SAMD14 (11745864_x_at) / RFU NPB (11741838_a_at) / Fold change /veh NPB (11741838_a_at) / RFU TMPRSS6 (11731388_a_at) / Fold change /veh TMPRSS6 (11731388_a_at) / RFU KRTAP10-2 (11738614_at) / Fold change /veh KRTAP10-2 (11738614_at) / RFU ARHGAP8 /// PRR5-ARHGAP8 (11727945_x_at) / Fold change /veh ARHGAP8 /// PRR5-ARHGAP8 (11727945_x_at) / RFU KRTAP5-7 /// NADSYN1 (11734609_at) / Fold change /veh KRTAP5-7 /// NADSYN1 (11734609_at) / RFU RASL12 (11751679_a_at) / Fold change /veh RASL12 (11751679_a_at) / RFU CDKN2B (11736163_a_at) / Fold change /veh CDKN2B (11736163_a_at) / RFU PRF1 (11729649_at) / Fold change /veh PRF1 (11729649_at) / RFU, ZNF638 /// ZNF638-IT1 / Fold change vs veh, ZNF638 /// ZNF638-IT1 / RFU, PANK3 / Fold change vs veh, PANK3 / RFU, SH3YL1 / Fold change vs veh, SH3YL1 / RFU, ZEB2 / Fold change vs veh, ZEB2 / RFU, NRIP1 / Fold change vs veh, NRIP1 / RFU, PTTG1IP / Fold change vs veh, PTTG1IP / RFU, CAPN2 / Fold change vs veh, CAPN2 / RFU, MED14 / Fold change vs veh, MED14 / RFU, SNORA58 / Fold change vs veh, SNORA58 / RFU, C1orf63 / Fold change vs veh, C1orf63 / RFU, LRRFIP1 / Fold change vs veh, LRRFIP1 / RFU, NDUFAF7 / Fold change vs veh, NDUFAF7 / RFU, SLC12A2 / Fold change vs veh, SLC12A2 / RFU, IBTK / Fold change vs veh, IBTK / RFU, ESF1 / Fold change vs veh, ESF1 / Fold change vs veh, TMEM50B / RFU, TAOK1 / Fold change vs veh, TAOK1 / RFU, ACBD3 / Fold change vs veh, ACBD3 / RFU, TMA16 / Fold change vs veh, TMA16 / RFU, RWDD3 / Fold change vs veh, RWDD3 / RFU, BCAT1 / Fold change vs veh, BCAT1 / RFU, EDEM3 / Fold change vs veh, EDEM3 / RFU, TMEM33 / Fold change vs veh, TMEM33 / RFU, WDR75 / Fold change vs veh, WDR75 / RFU, AHCTF1 / Fold change vs veh, AHCTF1 / RFU, TFRC / Fold change vs veh, TFRC / RFU, ZDHHC17 / Fold change vs veh, ZDHHC17 / RFU, NOM1 / Fold change vs veh, NOM1 / RFU, ARL8B / Fold change vs veh, ARL8B / RFU, ZBTB11 / Fold change vs veh, ZBTB11 / RFU, TAMM41 / Fold change vs veh, TAMM41 / RFU, KIAA1704 /// LOC100996395 / Fold change vs veh, KIAA1704 /// LOC100996395 / RFU, ING1 / Fold change vs veh, ING1 / RFU, TRMT61B / Fold change vs veh, TRMT61B / RFU, FUBP3 / Fold change vs veh, FUBP3 / RFU, TP53 / Fold change vs veh, TP53 / RFU, TNKS2 / Fold change vs veh, TNKS2 / RFU, ZFP14 / Fold change vs veh, ZFP14 / RFU, ACTR2 / Fold change vs veh, ACTR2 / RFU, PPP3R1 / Fold change vs veh, PPP3R1 / RFU, PIK3R1 / Fold change vs veh, PIK3R1 / RFU, HNRNPA1 / Fold change vs veh, HNRNPA1 / RFU, RNF170 / Fold change vs veh, RNF170 / RFU, ZNF28 / Fold change vs veh, ZNF28 / RFU, RNGTT / Fold change vs veh, RNGTT / RFU, OGT / Fold change vs veh, OGT / RFU, BRD1 / Fold change vs veh, BRD1 / RFU, MARS / Fold change vs veh, MARS / RFU, ZNF655 / Fold change vs veh, ZNF655 / RFU, FAHD1 / Fold change vs veh, FAHD1 / RFU, BDP1 / Fold change vs veh, BDP1 / RFU, LRRCC1 / Fold change vs veh, LRRCC1 / RFU, ARID1A / Fold change vs veh, ARID1A / RFU, ZNF146 / Fold change vs veh, ZNF146 / RFU, ZNF330 / Fold change vs veh, ZNF330 / RFU, GPN3 / Fold change vs veh, GPN3 / RFU, C9orf123 / Fold change vs veh, C9orf123 / RFU, N4BP2L2 / Fold change vs veh, N4BP2L2 / RFU, ARFIP1 / Fold change vs veh, ARFIP1 / RFU, FAM179B / Fold change vs veh, FAM179B / RFU, BCL10 / Fold change vs veh, BCL10 / RFU, UHRF1BP1L / Fold change vs veh, UHRF1BP1L / RFU, BET1 / Fold change vs veh, BET1 / RFU, CNOT2 / Fold change vs veh, CNOT2 / RFU, ZNF268 / Fold change vs veh, ZNF268 / Fold change vs veh, ZNF507 / RFU, DGCR2 / Fold change vs veh, DGCR2 / RFU, WDSUB1 / Fold change vs veh, WDSUB1 / Fold change vs veh, HSP90B1 /// MIR3652 / RFU, ADSS / Fold change vs veh, ADSS / RFU, GK / Fold change vs veh, GK / RFU, ZNF148 / Fold change vs veh, ZNF148 / RFU, TAF9 / Fold change vs veh, TAF9 / RFU, SLC1A5 / Fold change vs veh, SLC1A5 / RFU, SLMO2 / Fold change vs veh, SLMO2 / RFU, ABCC4 / Fold change vs veh, ABCC4 / RFU, LOC101060439 /// RAP1B / Fold change vs veh, LOC101060439 /// RAP1B / RFU, RFX7 / Fold change vs veh, RFX7 / RFU, GTPBP10 / Fold change vs veh, GTPBP10 / RFU, CNEP1R1 / Fold change vs veh, CNEP1R1 / RFU, BIVM-ERCC5 /// ERCC5 / Fold change vs veh, BIVM-ERCC5 /// ERCC5 / RFU, ILF3 / Fold change vs veh, ILF3 / RFU 11762660_at / Fold change /veh 11762660_at / RFU VCAN (11757783_s_at) / Fold change /veh VCAN (11757783_s_at) / RFU DDX43 (11728927_at) / Fold change /veh DDX43 (11728927_at) / RFU KRT8 (11758188_x_at) / Fold change /veh KRT8 (11758188_x_at) / RFU NKD1 (11759106_at) / Fold change /veh NKD1 (11759106_at) / RFU SRD5A1 (11742802_a_at) / Fold change /veh SRD5A1 (11742802_a_at) / RFU TPSAB1 /// TPSB2 (11721975_s_at) / Fold change /veh TPSAB1 /// TPSB2 (11721975_s_at) / RFU GSTM3 (11746129_a_at) / Fold change /veh GSTM3 (11746129_a_at) / RFU IL23R (11737362_x_at) / Fold change /veh IL23R (11737362_x_at) / RFU TMEM51 (11727254_a_at) / Fold change /veh TMEM51 (11727254_a_at) / RFU PIWIL2 (11732686_x_at) / Fold change /veh PIWIL2 (11732686_x_at) / RFU ORM1 (11744905_x_at) / Fold change /veh ORM1 (11744905_x_at) / RFU CCDC152 (11743942_at) / Fold change /veh CCDC152 (11743942_at) / RFU ECM1 (11717891_a_at) / Fold change /veh ECM1 (11717891_a_at) / RFU IL23R (11748794_a_at) / Fold change /veh IL23R (11748794_a_at) / RFU TNFAIP8L3 (11732012_x_at) / Fold change /veh TNFAIP8L3 (11732012_x_at) / RFU MBOAT4 (11741988_at) / Fold change /veh MBOAT4 (11741988_at) / RFU 11764193_at / Fold change /veh 11764193_at / RFU TMEM53 (11763286_at) / Fold change /veh TMEM53 (11763286_at) / RFU MAGEB2 (11727129_at) / Fold change /veh MAGEB2 (11727129_at) / RFU TMEM200A (11744735_a_at) / Fold change /veh TMEM200A (11744735_a_at) / RFU CCDC152 (11751479_a_at) / Fold change /veh CCDC152 (11751479_a_at) / RFU FAM211A (11726209_a_at) / Fold change /veh FAM211A (11726209_a_at) / RFU RGS16 (11746705_a_at) / Fold change /veh RGS16 (11746705_a_at) / RFU VCAN (11755009_s_at) / Fold change /veh VCAN (11755009_s_at) / RFU RHOB (11743442_s_at) / Fold change /veh RHOB (11743442_s_at) / RFU RGS16 (11720943_a_at) / Fold change /veh RGS16 (11720943_a_at) / RFU RGS16 (11720944_at) / Fold change /veh RGS16 (11720944_at) / RFU, VPS4B / Fold change vs veh, VPS4B / RFU, CREB1 / Fold change vs veh, CREB1 / RFU, DNAJC13 / Fold change vs veh, DNAJC13 / RFU, GNAQ / Fold change vs veh, GNAQ / RFU, CDK5R1 / Fold change vs veh, CDK5R1 / RFU, ZRANB3 / Fold change vs veh, ZRANB3 / RFU, CUL4A / Fold change vs veh, CUL4A / RFU, CCNY / Fold change vs veh, CCNY / RFU, UFL1 / Fold change vs veh, UFL1 / RFU, COG3 / Fold change vs veh, COG3 / RFU, DIAPH2 / Fold change vs veh, DIAPH2 / RFU, SKA2 / Fold change vs veh, SKA2 / RFU, AFF3 / Fold change vs veh, AFF3 / RFU, LMF1 / Fold change vs veh, LMF1 / RFU, IPO11 / Fold change vs veh, IPO11 / RFU, DFFB / Fold change vs veh, DFFB / RFU, FOXP1 / Fold change vs veh, FOXP1 / RFU, CARD8 / Fold change vs veh, CARD8 / RFU, STRN3 / Fold change vs veh, STRN3 / RFU, ADK / Fold change vs veh, ADK / RFU, RASSF2 / Fold change vs veh, RASSF2 / RFU, WIPF1 / Fold change vs veh, WIPF1 / RFU, LARP1B / Fold change vs veh, LARP1B / RFU, RASA1 / Fold change vs veh, RASA1 / RFU, RB1 / Fold change vs veh, RB1 / RFU, PPFIA1 / Fold change vs veh, PPFIA1 / RFU, MAT2A / Fold change vs veh, MAT2A / RFU, CCT5 / Fold change vs veh, CCT5 / RFU, WDR92 / Fold change vs veh, WDR92 / RFU, CUX1 / Fold change vs veh, CUX1 / RFU, TTC7A / Fold change vs veh, TTC7A / RFU, TMEM135 / Fold change vs veh, TMEM135 / RFU, DEPTOR / Fold change vs veh, DEPTOR / RFU, CPM / Fold change vs veh, CPM / RFU, DNAJB6 / Fold change vs veh, DNAJB6 / RFU, CACNA2D3 / Fold change vs veh, CACNA2D3 / RFU, DTX4 / Fold change vs veh, DTX4 / RFU, TFCP2 / Fold change vs veh, TFCP2 / RFU, GMCL1 /// GMCL1P1 / Fold change vs veh, GMCL1 /// GMCL1P1 / RFU, AEBP2 / Fold change vs veh, AEBP2 / RFU, SNHG1 /// SNORD22 /// SNORD25 /// SNORD26 /// SNORD27 /// SNORD28 /// SNORD29 /// SNORD31 / Fold change vs veh, SNHG1 /// SNORD22 /// SNORD25 /// SNORD26 /// SNORD27 /// SNORD28 /// SNORD29 /// SNORD31 / Fold change (Aza/veh), C12orf56 (ProbeSet 11735607_a_at) / Fold change (ACY-1035/veh), C12orf56 (ProbeSet 11735607_a_at) / Fold change (Aza/veh), FGFR1OP (ProbeSet 11751329_s_at) / Fold change (ACY-1035/veh), FGFR1OP (ProbeSet 11751329_s_at) / Fold change (Aza/veh), VPS36 (ProbeSet 11739960_a_at) / Fold change (ACY-1035/veh), VPS36 (ProbeSet 11739960_a_at) / RFU SYPL1 (11715823_x_at) / Fold change /veh SYPL1 (11715823_x_at) / RFU IGFBP7 (11715501_s_at) / Fold change /veh IGFBP7 (11715501_s_at) / RFU REEP3 (11722064_at) / Fold change /veh REEP3 (11722064_at) / RFU IGLL1 (11728026_x_at) / Fold change /veh IGLL1 (11728026_x_at): dose or concentration left out as unconfirmed
Settings: ProbeSet 11763166_a_at; LIST B

Compound: Nc1ccc(-c2cccs2)cc1NC(=O)c1ccc2c(c1)cc(C1CC1)n2CCN1CCOCC1 [ACY-1035]
- Fold change vs veh, MARS: 1.14

Source: publication PMC5218480 (PLoS ONE, 2017)
